# In EPA's ToxValDB 9.5 (doi:10.2903/j.efsa.2011.1924):
# Columns and labels:
# [1] = subchronic
# [2] = system: Rattus norvegicus
# [3] = subchronic, duration: 90 days, oral, diet
compound,measurement,setting,value
"CCCc1ccn(-c2ccccc2)n1 [1H-Pyrazole, 1-phenyl-3(or 5)-propyl-]",NOAEL,[1],25 mg/kg-day
CC(=O)c1nccs1 [2-Acetylthiazole],NOAEL,[2]; [3],50 mg/kg-day
CCC(=O)c1nccs1 [2-Propionylthiazole],NOAEL,[2]; [3],50 mg/kg-day
c1csc(SSc2cccs2)c1 [2-Thienyl disulfide],NOAEL,[2]; [3],0.29 mg/kg-day
"Cc1ccc2c(c1)OC(=O)C2C (stereo unspecified) [3,6-Dimethyl-1-benzofuran-2(3H)-one]",NOAEL,"[2]; subchronic, duration: 90 days, oral",5.42 mg/kg-day
"Cc1ncc2c(n1)CSC2 [5,7-Dihydro-2-methylthieno[3,4-d]pyrimidine]",NOAEL,"[2]; subchronic, duration: 90 days",6.6 mg/kg-day
"CC(=O)c1ccnc(C)n1 [Ethanone, 1-(2-methyl-4-pyrimidinyl)-]",NOAEL,"[2]; subchronic, duration: 90 days, Sprague-Dawley",1 mg/kg-day
C[S+](C)CC[C@H](N)C(=O)O.[Cl-] [L-Methylmethionine sulfonium chloride],NOAEL,"[2]; chronic, duration: 14 weeks, oral, diet, M/F, Wistar, no effects",250 mg/kg-day
COCCO [Methoxyethanol],NOAEL,[2]; chronic,6 mg/kg-day
"COc1cnc(C)s1 [Thiazole, 5-methoxy-2-methyl-]",NOAEL,[1]; duration: 90 days,8.6 mg/kg-day
COCCOC(C)OCc1ccccc1 (stereo unspecified) [{[1-(2-Methoxyethoxy)ethoxy]methyl}benzene],NOAEL,[2]; chronic,6 mg/kg-day
